Results published in US5272144A, “Aryloxy-, arylthio-, heteroaryloxy-, heteroarylthio-alkenylene derivatives of amines and pharmaceutical use” (Farmitalia Carlo Erba s.r.l., priority 1988, dated 1993).

Assays:
[1] = test system: reserpine-induced blepharospasm; experiment: prevention of reserpine-induced blepharospasm in mice (antidepressant activity); type: in vivo; conditions: Mus musculus, po, 1 h, per os, 30 min before reserpine 2.4 mg/kg endoperitoneally, blepharospasm scored one hour after reserpine, read-out: BLEPH/ED50 (blepharospasm)
Method: (§1) The antidepressant activity was evaluated for example in mice on the basis of the prevention of reserpine-induced blepharospasm and hypothermia.

[2] = test system: reserpine-induced hypothermia; experiment: prevention of reserpine-induced hypothermia in mice (antidepressant activity); type: in vivo; conditions: Mus musculus, po, 4 h, per os, 30 min before reserpine 2.4 mg/kg endoperitoneally, rectal temperature four hours after reserpine, read-out: HYPOTH/ED50 (hypothermia)
Method: as §1

Row | Structure (SMILES) | ED50 [1] [mg/kg] | ED50 [2] [mg/kg]
1 | CN(C)C/C=C(\Oc1ccccc1)c1ccccc1 [H H H H CH3 CH3 Z, (Z)α-phenoxy-α-phenyl-β-dimethylaminomethyl-ethylene] | 0.5 | 1.4
2 | CNC/C=C(\Oc1ccccc1)c1ccccc1 [H H H H H CH3 Z, (Z)α-phenoxy-α-phenyl-β-methylaminomethyl-ethylene] | 0.8 | 0.8
3 | CNC/C=C(\Oc1ccc(Cl)c(Cl)c1)c1ccccc1 [3-Cl 4-Cl H H H CH3 Z, α-(3,4-dichlorophenoxy)-α-phenyl-β-methylaminomethyl-ethylene] | 1.2 | 1.3
4 | CN(C)CCCN1c2ccccc2CCc2ccccc21 [IMIPRAMINE, reference compound] | 24.1 | 10.2
5 | CNC/C=C(/Oc1ccccc1)c1ccc2c(c1)OCO2 [H H 3,4-OCH2 O H CH3 E, α-phenoxy-α-(3,4-methylenedioxyphenyl)-β-methylaminomethyl-ethylene] | 1 | 1.4
6 | CNC/C=C(\Oc1ccccc1)c1ccc2c(c1)OCO2 [H H 3,4-OCH2 O H CH3 Z, α-phenoxy-α-(3,4-methylenedioxyphenyl)-β-methylaminomethyl-ethylene] | 2.2 | 2.4
7 | CNC/C=C(\Oc1ccccc1Cl)c1ccccc1 [H 2-Cl H H H CH3 Z, α-(2-chlorophenoxy)-α-phenyl-β-methylaminomethyl-ethylene] | 0.7 | 0.2
8 | CNC/C=C(/Oc1ccccc1Cl)c1ccccc1 [H 2-Cl H H H CH3 E, α-(2-chlorophenoxy)-α-phenyl-β-methylaminomethyl-ethylene] | 1.1 | 1.2
